Assay [1] relates to PAM 212 keratinocytes. The experiment in a line: PAM 212 keratinocyte growth inhibition (photo-toxicity with UVA / dark-toxicity without light). It is filed as cell-based.
The test system of assay [2] is PAM 212 keratinocytes. The assay is described as above. It is filed as cell-based. The following applies: UVA 320-400 nm, 1.28 J/cm2, growth 4-5 days. How it is done: Representative examples of the compounds described and claimed herein were tested in this assay for biological activity and found to be potent inhibitors of cell growth. Inhibition of cell growth was rapid, dependent on concentration, and required light activation. […] A description of this assay follows.
The photobiological activity was assayed using a keratinocyte cell line grown in a monolayer culture. In this assay, PAM 212 keratinocytes were grown in Dulbecco's Modified Eagle's medium supplemented with 10% newborn calf serum in a 5% carbon dioxide incubator. Cells were inoculated into 6-well Falcon plastic culture dishes at 25,000 cells per well. After 24 hours, the medium was charged to fresh growth medium supplemented with increasing concentrations of the test compounds or the control medium. Controls and test concentrations were analyzed in triplicate.
These plates were then incubated in a 37 degree C. carbon dioxide incubator. After 30 minutes culture plates were exposed to UVA light (UVA, 320-400 nm) emitted from a bank of four BLB fluorescent light tubes (F40 BL, Sylvania) placed approximately 10 cm above the cell culture plates. The incident light on the culture plates was 2.4 mW/cm^2 as measured with an International Light UV radiometer, Model IL 442A. The cells were exposed to 1.28 J/square centimeter of UVA.
After completion of the irradiation phase, the cell culture medium was drained, the cells refed with fresh growth medium and then re-incubated in the carbon dioxide incubator to allow for cell growth. After 4-5 days of growth the culture plates were removed from the incubator and the cell culture medium was drained. The cells were detached from the plates with trypsin and counted in a Coulter Counter. For control cells or for cells treated with test compounds, cell growth was determined as a percentage of control. […] This value is shown in Table I for a variety of phototherapeutics.

The test system of assay [3] is Aspergillus niger. Nature of the assay: Fungicidal assay, MIC against Aspergillus niger in MSY broth. It is filed as cell-based. As to conditions: Table II, four days at 28° C, in the dark, no unit in table (ppm levels). The protocol:
The antifungal activities of compounds synthesized were measured by determining the inhibition of growth of Aspergillus niger in a standard liquid medium. The liquid growth medium is described as a solution of mineral salts and yeast extract (MSY). The MSY broth was prepared as described in ASTM G21-70, and amended with glucose (10 g/l) and yeast extract (1 g/l). An aliquot ([…]) of sterile medium was dispensed into each test well of a standard 96 well microplate (Corning No. 430247). Stock solutions of test compounds were prepared by dissolving the materials in 9:1 (v/v) solutions of acetone:methanol. Appropriate volumes of stock solutions were added to the test wells in order to achieve the desired ppm levels. Each test well (plus controls) was then inoculated with […] of a standardized suspension of Aspergillus niger. The cell suspension was prepared by suspending viable cells from a slant of potato dextrose agar into sterile, deionized water. The suspension was then adjusted to provide OD686 =0.28. This density contains approximately 2.5×10^7 CFU (colony forming units)/ml. The microplates were incubated in the dark for four days at 28° C. The optical density for each well at 686 nm was then recorded automatically using a SpectraMax 340 microplate reader (Molecular Devices Corp., Sunnyvale, Calif.). All wells were visually inspected in order to corroborate data from the instrument.
The antifungal activity was measured as minimum inhibitory concentrations or MIC of the 5'-substituted-4',5'-dihydropsoralens.

Assay [4] has as its system Chlorella vulgaris. The experiment in a line: Algicidal assay, MIC against Chlorella in modified Allen's medium. It is filed as cell-based. The following applies: Table III, 14 days, 26 to 28° C, no unit in table (ppm). How it is done: To assay the activity of the 5'-substituted-4',5'-dihydropsoralens of the invention against Chlorella, the Allen method (A. A. Allen, […], Journal of Phycology, 4, 1-4) was employed. […] The minimum inhibitory concentration (MIC) of the compounds tested against the fungus Aspergillus niger using an MSY broth is shown in Table II.
Test tubes containing modified Allen's medium were treated with increasing dosages of the compound to be tested and inoculated with a suspension of algal cells. After fourteen days of incubation, algal growth was rated as positive or negative. The minimum inhibitory concentration (MIC) of the compound is the smallest dosage showing negative algal growth.
The apparatus required consisted of sterilized test tubes, 18-150 mm and an incubator, capable of a constant (±2° C.) temperature within 26 to 28° C. The following procedure was used:
(1) Stock solutions (g/200 g deionized water each) were generated with: K2 HPO4, 1.50 g; MgSO4, 7H2 O, 1.50 g; Na2 CO3, 0.80 g; CaCl2 2H2 O, 0.50 g; Na2 SiO3 9H2 O, 1.16 g, and Citric acid, 1.20 g.
(3) The modified Allen's medium was prepared in a volumetric flask by the addition of 1.5 g NaNO3, 5.0 mL stock solution K2 HPO4, 5.0 mL stock solution MgSO4 -- 7H2 O, 5.0 mL Stock solution Na2 CO3, 10.0 mL stock solution CaCl2 2H2 O, 10.0 mL stock solution Na2 SiO3 9H2 O, 1.0 mL stock solution Citric acid and 1.0 mL stock solution PIV metal with enough deionized water to make 1000 mL of medium (Allen, 1968). The pH was adjusted to 7.8 and 5 mL of medium is added to each test tube. The tubes were sterilized in the autoclave for 20 minutes at 15 psi at 121° C. The test tubes were allowed to cool to 45-50° C. before adding the test compound and the inoculurn to the medium.
(4) The inoculum was a cell suspension from a 14-day-old culture of Chlorella vulgaris (UTEX 26, University of Texas) that was grown in modified Allen's medium.
The concentration of the stock solution in water or acetone of the compound to be tested is dependent on the largest dose required to be tested. Dilutions of the stock solution were made so that 100 μL of the stock solution of the corresponiding dilution was added per test tube. 100 μL of the solvent was added to the control to prepare the stock solution.
The inoculation consists of the addition of 100 μL of inoculurn per test tube.
The incubation of the control test tube and the test tubes containing compound and inoculum occurred in an incubator set between 26 to 28° C., with the temperature not varying more than ±2° C. Light was provided by plant growth fluorescent tubes and the test tubes were allowed to stand in the incubator for 14 days.
Rating of the test tubes containing different dosages of the compound will be positive or negative. […] If the medium in the rubes remains colorless, a negative (not contaminated) rating is given. The control is always positive. The minimum inhibitory concentration (MIC) of the compound is determined to be the smallest dosage showing negative algal growth.

The test system of assay [5] is Mycobacterium tuberculosis H37Rv. Nature of the assay: Antituberculosis primary in vitro screen, BACTEC 460. Type of assay: cell-based, Mycobacterium tuberculosis H37Rv ATCC 27294. The following applies: Mycobacterium tuberculosis, H37RV; 12.5 μg/mL, 37° C; read-out: Anti-tubercular Activity (% inhibition).
The mark [6] stands for this setting: Mus musculus, PAM212, light or radiation study.

Structures can show the parent of a compound that is named as a salt. Where two headings read alike, the source gives them in different places.

The IC50 is the concentration that inhibits the measured activity by half. The low end stands for higher potency, the high end for lower potency. On to “4,8-dimethyl-5'-trifluoroacetomercurimethyl-4',5'-dihydropsoralen [R = H, T = Hg-O-COCF3]”, for which the figures for the IC50 in assay [1] and in assay [2] were 7 µM and 4.2 µM, respectively. Also, the MIC amounted to 16 in assay [3] and 10 in assay [4].

The term inhibition denotes the change of the read-out against control, counted positive when it falls. For the compound `Cc1c(Br)c(=O)oc2c(C)c3c(cc12)CC(CI)O3` (stereo not shown) [R = Br, T = I, 3-Bromo-4,8-dimethyl-5'-iodomethyl-4',5'-dihydropsoralen], in assay [2] (setting [6]), the IC50 turned out to be 0.48 µM. Moreover, in assay [5], the inhibition at 12.5 µg/mL was 25%.

In assay [2] (setting [6]), `Cc1c(Br)c(=O)oc2c(C)c3c(cc12)CC(CN1C(=O)c2ccccc2C1=O)O3` (stereo not shown) [R = Br, T = phthalimido] yielded an IC50 of 3.9 µM.

In turn, `Cc1c(Br)c(=O)oc2c(C)c3c(cc12)CC(C[n+]1ccccc1)O3` (stereo not shown) [R = Br, T = pyridinium iodide salt, 3-Bromo-4,8-dimethyl-5'-(N-pyridiniummethyl)-4',5'-dihydropsoralen Iodide Salt] gave an IC50 in assay [2] (setting [6]) of 1.6 µM.

Consider `Cc1c(C#N)c(=O)oc2c(C)c3c(cc12)CC(CBr)O3` (stereo not shown) [R = CN, T = Br, 3-Cyano-4,8-dimethyl-5'-bromomethyl-4',5'-dihydropsoralen], for which half-maximal inhibition in assay [2] (IC50) was put at 6.4 µM.

Consider `CC(=O)[O][Hg][CH2]C1Cc2cc3c(C)c(C#N)c(=O)oc3c(C)c2O1` (stereo not shown) [R = CN, T = HgOAc, 3-Cyano-4,8-dimethyl-5'-acetomercurimethyl-4',5'-dihydropsoralen], for which the results for the IC50 in assay [1] and in assay [2] were 30 µM and 20 µM, respectively.

`Cc1c(C#N)c(=O)oc2c(C)c3c(cc12)CC(CI)O3` (stereo not shown) [R = CN, T = I, 3-Cyano-4,8-dimethyl-5'-iodomethyl-4',5'-dihydropsoralen]: the IC50 in assay [2] (setting [6]) came to 2.1 µM.

In assay [2] (setting [6]), `Cc1c(C#N)c(=O)oc2c(C)c3c(cc12)CC(C[n+]1ccccc1)O3` (stereo not shown) [R = CN, T = pyridinium iodide salt, 3-Cyano-4,8-dimethyl-5'-(N-pyridiniummethyl)-4',5'-dihydropsoralen Iodide Salt] registered a concentration for half-maximal inhibition (IC50) of 1000 µM.

Compound `Cc1c(F)c(=O)oc2c(C)c3c(cc12)CC(CBr)O3` (stereo not shown) [R = F, T = Br, 3-Fluoro-4,8-dimethyl-5'-bromomethyl-4',5'-dihydropsoralen] yielded a concentration for half-maximal inhibition (IC50) in assay [2] of 4 µM.

As for `CC(=O)[O][Hg][CH2]C1Cc2cc3c(C)c(F)c(=O)oc3c(C)c2O1` (stereo not shown) [R = F, T = HgOAc, 3-Fluoro-4,8-dimethyl-5'-acetomercurimethyl-4',5'-dihydropsoralen], the half-maximal inhibitory concentration (IC50) in assay [1] stood at 14 µM; in assay [2], 9.3 µM.

Compound `Cc1c(F)c(=O)oc2c(C)c3c(cc12)CC(CI)O3` (stereo not shown) [R = F, T = I, 3-Fluoro-4,8-dimethyl-5'-iodomethyl-4',5'-dihydrofurocoumarin] showed an IC50 in assay [2] (setting [6]) of 62 µM. Further, in assay [5], the inhibition at 12.5 µg/mL stood at 31%.

`Cc1cc(=O)oc2c(C)c3c(cc12)CC(CN1CC(C)OC(C)C1)O3` (stereo not shown) [R = H, T = 2,6-dimethylmorpholine, 4,8-Dimethyl-5'-(2,6-dimethylmorpholino)methyl-4',5'-dihydropsoralen] came in with an IC50 in assay [2] (setting [6]) of 0.01 µM.

`Cc1cc(=O)oc2c(C)c3c(cc12)CC(C)O3` (stereo not shown) [R = H, T = H, reference compound] came in with an IC50 in assay [2] (setting [6]) of 0.27 µM. This IC50 lies about 27-fold higher than the previous one.

Turning to `Cc1cc(=O)oc2c(C)c3c(cc12)CC([CH2][Hg][Cl])O3` (stereo not shown) [R = H, T = HgCl, 4,8-Dimethyl-5'-chloromercurimethyl-4',5'-dihydropsoralen], the IC50 was 15 µM in assay [1] and 6.1 µM in assay [2]. Moreover, the MIC in assay [3] is listed as less than 8; in assay [4] it was 10.

Turning to `Cc1cc(=O)oc2c(C)c3c(cc12)CC([CH2][Hg][I])O3` (stereo not shown) [R = H, T = HgI, 4,8-Dimethyl-5'-iodomercurimethyl-4',5'-dihydropsoralen], the results for the IC50 in assay [1] and in assay [2] were 4.2 µM and 1.3 µM, respectively. Further, the results for the MIC in assay [3] and in assay [4] were less than 8 and 9, respectively.

On to `CC(=O)[O][Hg][CH2]C1Cc2cc3c(C)cc(=O)oc3c(C)c2O1` (stereo not shown) [R = H, T = HgOAc, 4,8-Dimethyl-5'-acetomercurimethyl-4',5'-dihydropsoralen], for which the IC50 worked out at 6.2 µM in assay [1] and 4.8 µM in assay [2]. Moreover, the figures for the MIC in assay [3] and in assay [4] were less than 8 and 10, respectively.

In turn, `Cc1cc(=O)oc2c(C)c3c(cc12)CC(CN(CCO)CCO)O3` (stereo not drawn) [R = H, T = N(CH2 CH2 OH)2, 4,8-Dimethyl-5'-[N,N-β-(hydroxyethylamino)-methyl]-4',5'-dihydropsoralen] yielded an IC50 in assay [2] (setting [6]) of 0.31 µM.

As for `Cc1cc(=O)oc2c(C)c3c(cc12)CC(CN1CCOCC1)O3` (stereo not shown) [R = H, T = morpholino, 4,8-Dimethyl-5'-morpholinomethyl-4',5'-dihydropsoralen], in assay [2] (setting [6]), the IC50 stood at 3.2 µM.

As for `Cc1cc(=O)oc2c(C)c3c(cc12)CC(C[n+]1ccccc1)O3` (stereo not shown) [R = H, T = pyridinium iodide salt, 4,8-Dimethyl-5'-(N-pyridiniummethyl)-4',5'-dihydropsoralen Iodide Salt], in assay [2] (setting [6]), the IC50 is 0.37 µM.

For the compound `[Cl][Hg][CH2]C1Cc2ccccc2O1` (stereo not shown) [T = HgCl, 2-Chloromercurimethyl-2,3-dihydrobenzofuran], the IC50 in assay [1] was found to be 13 µM; in assay [2], 5.9 µM. Besides, the MIC in assay [3] is listed as 24; in assay [4], 10.

On to `CC(=O)[O][Hg][CH2]C1Cc2ccccc2O1` (stereo not shown) [T = HgOAc, 2-Acetomercurimethyl-2,3-dihydrobenzofuran], for which the IC50 turned out to be 11 µM in assay [1] and 6.1 µM in assay [2]. The MIC in assay [3] came to 16; in assay [4], 10.

The record behind these values is patent US6255324A, “Amino-and mercurio-substituted 4',5'-dihydropsoralens and therapeutical uses thereof” (priority 1998, dated 2001).
